In publication PMC6017932, “Synthesis of Selenium-Quinone Hybrid Compounds with Potential Antitumor Activity via Rh-Catalyzed C-H Bond Activation and Click Reactions” (Molecules : A Journal of Synthetic Chemistry and Natural …, 2017):
Read-outs that look alike come from different tables or passages of the source.

Key:
[1] = test system: NCIH-460 (human lung cells); assay: MTT cytotoxicity, NCIH-460 cells; assay type: cell-based; details: three independent experiments, read-out: Cytotoxic activity IC50 (95% CI) NCIH-460
Procedure: (§1) Compounds were evaluated for antitumor activity in cell culture in vitro using several human cancer cell lines obtained from the National Cancer Institute, NCI (Bethesda, MD, USA). […] The L929 cells were cultivated under standard conditions in DMEM with Earle’s salts. […] At the end of the incubation time (72 h), the plates were centrifuged and the medium was replaced by fresh medium (200 μL) containing 0.5 mg/mL MTT. After 3 h, the MTT formazan product was dissolved in DMSO (150 μL) and the absorbance was measured using a multiplate reader (Spectra Count, Packard, ON, Canada). The impact of compounds on cell proliferation was quantified as the percentage of control absorbance of the reduced dye at 550 nm. All cell culture based studies were performed in triplicate. All cells were mycoplasma-free.

[2] = test system: L929 (murine fibroblasts normal cells); assay: MTT cytotoxicity, L929 normal cells; assay type: cell-based, mouse; details: normal cell line, 72 h exposure, three independent experiments, read-out: Cytotoxic activity IC50 (95% CI) L929
Procedure: as §1

[3] = test system: HL-60 (human promyelocytic leukemia cells); assay: MTT cytotoxicity, HL-60 cells; assay type: cell-based; details: three independent experiments, read-out: Cytotoxic activity IC50 (95% CI) HL-60
Procedure: as §1

[4] = test system: HCT-116 (human colon carcinoma cells); assay: MTT cytotoxicity, HCT-116 cells; assay type: cell-based; details: three independent experiments, read-out: Cytotoxic activity IC50 (95% CI) HCT-116
Procedure: as §1

[5] = test system: PC3 (human prostate cancer cells); assay: MTT cytotoxicity, PC3 cells; assay type: cell-based; details: three independent experiments, read-out: Cytotoxic activity IC50 (95% CI) PC3
Procedure: as §1

[6] = test system: SF295 (human glioblastoma cells); assay: MTT cytotoxicity, SF295 cells; assay type: cell-based; details: three independent experiments, read-out: Cytotoxic activity IC50 (95% CI) SF295
Procedure: as §1

[7] = MTT cytotoxicity, L929 normal cells; assay type: cell-based, mouse; details: mouse, normal cell line, 72 h exposure, three independent experiments, read-out: Cytotoxic activity IC50 (95% CI) L929
Procedure: as §1

melting point | Compound | IC50 ([1]; 72 h exposure) | IC50 [2] | IC50 ([3]; 72 h exposure) | IC50 ([4]; 72 h exposure) | IC50 ([5]; 72 h exposure) | IC50 ([6]; 72 h exposure) | IC50 ([1]; Homo sapiens, NCI-H460, 72 h exposure) | IC50 at 72 h [7] | IC50 ([3]; Homo sapiens, HL-60, 72 h exposure) | IC50 ([4]; Homo sapiens, HCT-116, 72 h exposure) | IC50 ([5]; Homo sapiens, PC-3, 72 h exposure) | IC50 ([6]; Homo sapiens, SF-295, 72 h exposure)
– | 3-Bromo-2,2-dimethyl-4-(4-((p-tolylselanyl)methyl)-1H-1,2,3-triazol-1-yl)-3,4-dihydro-2H-benzo[h]-chromene-5,6-dione [Compound 21] | 1.49 µM | 1.28 µM | 1 µM | > 8 µM | 1.77 µM | 1.63 µM | – | – | – | – | – | –
– | 4-(4-((Benzylselanyl)methyl)-1H-1,2,3-triazol-1-yl)-3-bromo-2,2-dimethyl-3,4-dihydro-2H-benzo[h]-chromene-5,6-dione [Compound 20] | 3.26 µM | 0.61 µM | 1 µM | 2.03 µM | – | 3.12 µM | – | – | – | – | – | –
119.5 to 121.4 °C | CC1(C)OC2=C(C(=O)C(=O)c3ccccc32)C(n2cc(CSc3ccccc3)nn2)C1Br (stereo not drawn) [Compound 24, 3-Bromo-2,2-dimethyl-4-(4-((phenylthio)methyl)-1H-1,2,3-triazol-1-yl)-3,4-dihydro-2H-benzo[h]chromene-5,6-dione] | – | – | – | – | – | – | 4.91 µM | 0.84 µM | 1.94 µM | 4.38 µM | 2.1 µM | 2.34 µM
